Columns and labels:
[1] = test system: USP1; assay: In vitro deubiquitination assay; format: biochemical, human; settings: purified USP1 and ubiquitinated ID2 from 293T cells
Protocol: 293T cells were transfected with USP1-Flag, USP1-[…]-Flag or ID2-Flag and HA-ubiquitin in separate batches. Ubiquitinated ID2-Flag was immunoprecipitated as described above from SDS-boiled lysates. USP1 and USP1 […] were immunoprecipitated with Flag M2-agarose beads following lysis in NP-40 lysis buffer. All samples were eluted from beads with 500 μg/ml 3×Flag peptide (Sigma). Samples were recombined in deubiquitination buffer (20 mM HEPES, 20 mM NaCl, 100 μg/ml BSA, 500 μM EDTA, 1 mM DTT, pH=8.3) and incubated for the indicated times at room temperature. Ubiquitin levels were assessed by immunoblot with HA antibodies.

[2] = test system: p21; assay: p21 and p53 expression in U2-OS cells; format: cell-based, human; settings: etoposide treatment
Protocol: U2-OS, HOS, SJSA, SAOS, or MG-63 cells were grown to 10-25% confluence and transfected with the plasmids indicated in combination with the marker plasmid pMACS using FuGENE 6 (Sigma).
Transfected cells were sorted with MACS-select H-2K^k microbeads (Miltenyi Biotec). RNA was extracted from cultured or sorted transfected cells with Qiagen RNeasy Mini kits. Protein was extracted from sorted or cultured cells via lysis in NP-40 buffer (1% NP-40, 120 mM NaCl, 50 mM Tris, pH=7.4, 1 mM EDTA) supplemented with protease inhibitor cocktail I and phosphatase inhibitor cocktails 1 and 2 (Calbiochem). Lysates were clarified by centrifugation at 15,000×G for 10 minutes prior to analysis. Protein content was normalized by BCA protein assay (Thermo Scientific). For dual shRNA/siRNA experiments, cells were transfected with DNA expression vectors via Fugene and subsequently transfected with control siRNA (sense-5′-[…]-3′ (SEQ ID NO:20)) or siRNA targeting p21 (5′-[…]-3′ (SEQ ID NO:21)) via nucleofection with program X-001 in nucleofection solution V (Lonza). DT-40 cells were transfected by nucleofection with program B-023 in nucleofection solution T (Lonza).
Rat monoclonal antibodies were raised against the C-terminal 100 amino-acids of human USP1 or WDR48 to produce the monoclonal USP1 antibody 5E10 and WDR48 antibody 9F10. […]

| Structure (SMILES) | decrease in ID2 ubiquitination by USP1 [1] | p21 induction [2] |
| --- | --- | --- |
| CCN1C(=O)C=CC1=O [N-ethylmaleimide] | sensitive | – |
| COc1cc([C@@H]2c3cc4c(cc3[C@@H](O[C@@H]3O[C@@H]5CO[C@@H](C)O[C@H]5[C@H](O)[C@H]3O)[C@H]3COC(=O)[C@H]23)OCO4)cc(OC)c1O [etoposide] | – | induced |
